Article PMC11862924, “Phenylpyrazoles as Inhibitors of the m^6A RNA-Binding Protein YTHDF2” (JACS Au, 2025)
“Also recorded” adds a separate entry of the source.

How the values were obtained:
[1] = target: T1, YTHDF2 (residues 383–553) (Homo sapiens, UniProt Q9Y5A9); assay: Fluorescence polarization (FP) assay, YTHDF2–m6A RNA interaction; type: binding; settings: 100 μM compound; YTHDF2 (residues 383–553, 20 nM), FAM-labeled m6A RNA probe 5 nM; average ± SD
T1 construct: A YTHDF2 YTH domain construct (residues 383–553) was subcloned to a pOPIN plasmid; made in house; host or cells: Escherichia coli BL21(DE3)
T1 sequence (Q9Y5A9 383-553): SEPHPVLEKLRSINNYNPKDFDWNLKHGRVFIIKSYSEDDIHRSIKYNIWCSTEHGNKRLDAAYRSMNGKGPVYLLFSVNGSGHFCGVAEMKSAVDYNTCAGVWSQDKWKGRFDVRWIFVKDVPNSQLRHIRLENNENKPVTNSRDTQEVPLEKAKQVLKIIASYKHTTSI
Protocol: The FP assay was performed in 384-well black plates (Corning no. 4514) with a total reaction volume of 15 μL. The final concentrations of protein (YTHDF2) and RNA were […], respectively, in a buffer containing 20 mM HEPES/KOH pH 7.5, 50 mM NaCl, 0.005% Tween 20, and 1 mM GSH (DTT). Compounds were incubated with protein, added FAM-m^6A RNA probe ([…](m6)ACUGUG) (purchased from IDT), and incubated at 4 °C for 30 min. The fluorescence polarization was measured using a plate reader (TECAN Spark) under an excitation wavelength of 485 nm and an emission wavelength of 535 nm with a bandwidth of 20 nm. […] The data were determined using GraphPad Prism 9.

YTHDF2 [2] = target: T2, YTHDF2 (Homo sapiens, UniProt Q9Y5A9); assay: Electrophoretic mobility shift assay (EMSA); type: binding; settings: for inhibition of the YTHDF2–m6A RNA interaction in EMSA at 100 μM (in words): 100 μM compound, 250 nM YTHDF2, FAM-labeled m6A RNA; for concentration-dependent inhibition of YTHDF2–m6A RNA complex formation in EMSA (in words): 3.1–100 μM compound, 250 nM YTHDF2, 20 nM FAM-labelled m6A RNA
T2 construct: A YTHDF2 YTH domain construct (residues 383–553) was subcloned to a pOPIN plasmid; made in house; host or cells: Escherichia coli BL21(DE3)
T2 sequence (Q9Y5A9 383-553): T1 sequence (Q9Y5A9 383-553)
Protocol: Compounds with different concentrations (3.1–100 μM) were incubated with 250 nM YTH-domain and 20 nM FAM-17mer-RNA in a buffer containing 20 mM HEPES, pH 8.2, 50 mM NaCl, 0.05% Triton X-100, and 5% v/v glycerol for 20 min at 4 °C. […] Gel imaging was performed in ChemiDoc MP (Bio-Rad), and Cy2/Alexa488 fluorescence was detected with a 1-min exposure time. Quantification of the gel image was performed by ImageJ.

YTHDF2 [3] = target: T2, YTHDF2; assay: nanoDSF thermal shift assay; type: binding; settings: for ΔTm at 5 µM: 5 μM compound; for ΔTm at 10 µM: 10 μM compound; for ΔTm at 25 µM: 25 μM compound
Protocol: NanoDSF was measured on a NanoTemper instrument (Prometheus NT.48). YTHDF2 protein was used at a concentration of 5 μM and incubated with 50, 25, 10, and 5 μM compound in buffer (100 mM KPi, pH 7.0, 250 mM NaCl, 10% Glycerol) for 50 min, in which 0.1% DMSO was used as the reference. The heat rate was set to 1 °C per minute, measured in a range between 20 and 90 °C.

[4] = MTT cytotoxicity assay, JAR; type: cell-based; settings: human, JAR cells, triplicates, read-out: Cytotoxicity against cancer cells (IC50), JAR
Protocol: (§1) JAR, K562, and HCT116 cells were seeded in 96-well plates (3500 cells/well) and incubated for 8 h. The medium with different concentrations of compounds (100, 33.3, 11.1, 3.7, 1.2, and 0.4 μM) was added to the 96-well plates. Data were normalized to the medium with 0.1% DMSO. After incubation for 72 h, MTT solution (5 mg/mL, 20 μL) was added per well in a dark environment and incubated for 4 h. After the medium was discarded, DMSO (150 μL) was added per well, and the absorbance was measured at 492 nm by a plate reader (TECAN Spark).

[5] = MTT cytotoxicity assay, K562; type: cell-based; settings: human, K562 cells, triplicates, read-out: Cytotoxicity against cancer cells (IC50), K562
Protocol: as §1

[6] = MTT cytotoxicity assay, HCT116; type: cell-based; settings: human, HCT116 cells, triplicates, read-out: Cytotoxicity against cancer cells (IC50), HCT116
Protocol: as §1

JAR = assay: CCK-8 proliferation assay, JAR; type: cell-based; settings: Homo sapiens; CCK-8 kit assay, triplicates, 72 h; read-out: Anti-proliferation activity against cancer cells (IC50), JAR
Protocol: (§2) The JAR, K562, HCT116, and MOLM13 cells were seeded in 96-well plates (3000 cells/well). After being cultured overnight, compounds were added together with the DMSO treatment (0.1%) as a control. After 72 h, CCK-8 solution (Vazyme, A311) was added, and the cells were incubated at 37 °C for 4 h. The absorbance was measured at 450 nm using a plate reader (TECAN Spark).

K562 = assay: CCK-8 proliferation assay, K562; type: cell-based; settings: Homo sapiens, CCK-8 kit assay, triplicates, 72 h, read-out: Anti-proliferation activity against cancer cells (IC50), K562
Protocol: as §2

HCT116 = assay: CCK-8 proliferation assay, HCT116; type: cell-based; settings: Homo sapiens, HCT-116; CCK-8 kit assay, triplicates, 72 h; read-out: Anti-proliferation activity against cancer cells (IC50), HCT116
Protocol: as §2

YTHDF2 YTH domain = target: T3, YTHDF2 YTH domain (Homo sapiens, UniProt Q9Y5A9); assay: AlphaScreen assay; settings: for inhibition at 100 μM in AlphaScreen: 100 μM compound; for inhibitory IC50 in AlphaScreen (in words): Figures S3 and S4
T3 sequence (Q9Y5A9 383-553): T1 sequence (Q9Y5A9 383-553)
Protocol: Initially, the YTHDF2 YTH domain at different concentrations (0–2500 nM) was incubated with varied concentrations of RNA probes (5’-Bi-CGAm6ACUGUC–3′, IDT company) (5, 25, 50, and 100 nM) in 25 mM Hepes (pH 7.5), 100 mM NaCl, and 0.1% BSA to probe the optimal ratio between protein and RNA before the detection signal reached saturation. The AlphaScreen Histidine Detection Kit (Nickel Chelate) (PerkinElmer) 6760619 M and white 384-well Optiplates (PerkinElmer) were used. Anti-His receptor beads (PerkinElmer) (final concentration: 20 μg/mL) and streptavidin donor beads (final concentration: 20 μg/mL) were first added. The reaction mixture was then incubated at room temperature in a dark environment for 1 h to reach equilibrium. The optical signal was detected using a Tecan plate reader.
The inhibitory activities of the phenylpyrazoles (at 100 µM) against YTHDF2 binders
in the amplified luminescent proximity homogeneous assay (AlphaScreen).
phenylpyrazoles featuring a 2 -hydroxybenzoyl moiety R1 (blue) and a 4 -carboxyphenyl moiety
represent average values ± s.d.

YTHDF2 [7] = target: T2, YTHDF2; set-up: method as in PMID 37236197; settings: read-out: IC50, YTHDF2, AlphaScreen; cited from earlier work
YTHDF1 = target: T4, YTHDF1 (Homo sapiens, UniProt Q9BYJ9); set-up: method as in PMID 36268123; settings: read-out: EC50, YTHDF1, tryptophan quenching assay; cited from earlier work
T4 construct: Plasmids of the YTH domain of YTHDF1 (residues 375–552); made in house; host or cells: Escherichia coli BL21(DE3); plasmid from the Zhou lab (Boston College)
T4 sequence (Q9BYJ9 375-552): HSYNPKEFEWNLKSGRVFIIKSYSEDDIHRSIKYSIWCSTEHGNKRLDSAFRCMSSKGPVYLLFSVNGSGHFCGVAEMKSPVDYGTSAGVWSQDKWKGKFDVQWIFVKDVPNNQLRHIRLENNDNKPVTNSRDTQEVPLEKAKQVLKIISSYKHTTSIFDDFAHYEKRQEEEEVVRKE

YTHDF2 [8] = target: T2, YTHDF2; set-up: method as in PMID 36268123; settings: read-out: EC50, YTHDF2, tryptophan quenching assay; cited from earlier work
METTL3 = system: METTL3; set-up: method as in PMID 33902106; settings: cited from earlier work

| Molecule | inhibition at 100 µM [1] | concentration-dependent inhibition of YTHDF2–m6A RNA complex formation in EMSA (in words) (YTHDF2 [2]) | ΔTm at 5 µM (YTHDF2 [3]) | ΔTm at 10 µM (YTHDF2 [3]) | ΔTm at 25 µM (YTHDF2 [3]) | IC50 (K562) | IC50 (HCT116) | inhibition at 100 μM in AlphaScreen (YTHDF2 YTH domain) | inhibitory IC50 in AlphaScreen (in words) (YTHDF2 YTH domain) | inhibition of the YTHDF2–m6A RNA interaction in EMSA at 100 μM (in words) (YTHDF2 [2]) | IC50 at 72 h [4] | IC50 at 72 h [5] | IC50 at 72 h [6] | IC50 (JAR) | IC50 (YTHDF2 [7]) | EC50 (YTHDF1) | EC50 (YTHDF2 [8]) | inhibitory activity against METTL3 (in words) (METTL3) |
| --- | --- | --- | --- | --- | --- | --- | --- | --- | --- | --- | --- | --- | --- | --- | --- | --- | --- | --- |
| O=C(O)c1ccc(-n2cc(C(=O)c3cc([N+](=O)[O-])ccc3O)cn2)cc1 [CK-62] | 34.4 ± 7.1% | dose-dependently inhibited | 0.3 ± 0.05 °C | 0.5 ± 0.14 °C | 0.48 ± 0.3 °C | > 50 µM | > 50 µM | – | – | potent inhibition; also recorded: potently inhibited | 42.6 ± 18.5 µM | > 50 µM | > 50 µM | > 50 µM | – | – | – | – |
| O=C(O)c1ccc(-n2cc(C(=O)c3cccc(Cl)c3O)cn2)cc1 [CK-96] | 52.2 ± 10.1% | – | – | – | – | > 50 µM | > 50 µM | – | – | – | 40.2 ± 12.7 µM | 25.4 ± 7.8 µM | 20.6 ± 8.1 µM | > 50 µM | – | – | – | – |
| O=c1c2ccccc2[se]n1-c1ccccc1 [Ebselen] | – | – | – | – | – | – | – | – | – | – | – | – | – | – | – | 1.6 µM | 1.7 µM | – |
| O=C(NCc1ccc2cc(CNCC3CCC3)[nH]c2c1)c1cc(=O)n2ccccc2n1 [STC-15] | – | – | – | – | – | – | – | – | – | – | – | – | – | – | – | – | – | nanomolar inhibitory activity |
| STM2457 | – | – | – | – | – | – | – | – | – | – | – | – | – | – | – | – | – | nanomolar inhibitory activity |

Now from value to molecule, other results behind:

| inhibition at 100 µM [1] | concentration-dependent inhibition of YTHDF2–m6A RNA complex formation in EMSA (in words) (YTHDF2 [2]) | ΔTm at 5 µM (YTHDF2 [3]) | ΔTm at 10 µM (YTHDF2 [3]) | ΔTm at 25 µM (YTHDF2 [3]) | IC50 (K562) | IC50 (HCT116) | inhibition at 100 μM in AlphaScreen (YTHDF2 YTH domain) | inhibitory IC50 in AlphaScreen (in words) (YTHDF2 YTH domain) | Molecule | inhibition of the YTHDF2–m6A RNA interaction in EMSA at 100 μM (in words) (YTHDF2 [2]) | IC50 at 72 h [4] | IC50 at 72 h [5] | IC50 at 72 h [6] | IC50 (JAR) | IC50 (YTHDF2 [7]) | EC50 (YTHDF1) | EC50 (YTHDF2 [8]) | inhibitory activity against METTL3 (in words) (METTL3) |
| --- | --- | --- | --- | --- | --- | --- | --- | --- | --- | --- | --- | --- | --- | --- | --- | --- | --- | --- |
| 41.8 ± 3.2% | dose-dependently inhibited | 0.15 ± 0.14 °C | 0.43 ± 0.11 °C | 1.48 ± 0.52 °C | 31.2 ± 8.9 µM | > 50 µM | > 80% | low double-digit micromolar | CC(C)c1ccc(O)c(C(=O)c2cnn(-c3ccc(C(=O)O)cc3)c2)c1 [CK-55] | potent inhibition; also recorded: potently inhibited | 44.4 ± 13.5 µM | 32.4 ± 22.1 µM | 49.5 ± 8.5 µM | > 50 µM | – | – | – | – |
| 37.4 ± 3.9% | – | – | – | – | > 50 µM | > 50 µM | – | – | O=C(O)c1ccc(-n2cc(C(=O)c3cc(F)ccc3O)cn2)cc1 [CK-56] | potent inhibition | 41.2 ± 14.1 µM | 23.9 ± 7.5 µM | 19.3 ± 2.5 µM | > 50 µM | – | – | – | – |
| 63.2 ± 6.9% | – | – | – | – | 38.8 ± 3.7 µM | 47.2 ± 8.7 µM | > 80% | low double-digit micromolar | COc1ccc(O)c(C(=O)c2cnn(-c3ccc(C(=O)O)cc3)c2)c1 [CK-66] | – | > 50 µM | > 50 µM | > 50 µM | 47.3 ± 6.3 µM | – | – | – | – |
| 41.1 ± 7.7% | dose-dependently inhibited | 0.47 ± 0.11 °C | 1.35 ± 0.66 °C | 2.27 ± 0.26 °C | 33.4 ± 3.3 µM | 41.6 ± 8.2 µM | > 80% | low double-digit micromolar | O=C(O)c1ccc(-n2cc(C(=O)c3cc(Cl)ccc3O)cn2)cc1 [CK-67] | potent inhibition; also recorded: potently inhibited | > 50 µM | 34.9 ± 13.4 µM | 48.5 ± 4.9 µM | 38.5 ± 9.2 µM | – | – | – | – |
| 17.4 ± 10.5% | dose-dependently inhibited | 0.63 ± 0.08 °C | 1.42 ± 0.36 °C | 2.42 ± 0.24 °C | 45.5 ± 6.2 µM | > 50 µM | – | – | O=C(O)c1ccc(-n2cc(C(=O)c3ccc(Br)cc3O)cn2)cc1 [CK-70] | potent inhibition; also recorded: potently inhibited | > 50 µM | 42.1 ± 14.6 µM | 36.4 ± 2.8 µM | 48.5 ± 3.9 µM | – | – | – | – |
| 14.2% | – | – | – | – | 24.5 ± 3.7 µM | 5.8 ± 0.9 µM | – | – | N#C/C(=C\c1ccc(-c2cccc(O)c2)s1)C(N)=O [DC-Y13–27, reference compound] | – | – | – | – | 33.3 ± 5.6 µM | 21.8 µM | – | – | – |
